Experiments:
[1] = tested on: cisplatin-induced renal injury; test: Histology (H&E staining) and morphological assessment of renal tissues; format: in vivo, C57BL/6 mice
Description: (§1) Six- to eight-weeks old male or female C57BL/6 mice were purchased from the Jackson laboratory. A block randomization method was used to divide these animals into experimental groups. In order to eliminate bias, investigators were blinded during data collection and analysis. The mice were housed under a 12 hour day-night cycle. They were provided with free access to water and food pellets. This animal study was approved by the Kyungpook National University Institutional Animal Care and Use Committee.
(§2) Three days later, kidneys were collected and analyzed.
(§3) Formaldehyde-fixed kidneys were dehydrated using graded alcohol series and paraffinized. Paraffin sections of 5 μm were stained with hematoxylin and eosin (H&E). Each parameter was determined for at least 6 different animals. TUNEL assays were performed using In Situ Cell Detection Kit, Fluorescein (Roche Diagnostic) according to the manufacturer's instructions. A pathologist quantified kidney damage in a double blinded manner using renal damage score, as previously described (See Jiang M et al., Am J Physiol Renal Physiol 287, F1140-1147, 2004). Briefly, tissues were stained with H&E. The degree of morphological involvement in renal dysfunction was determined using light microscopy.
Each parameter was determined for at least five different animals.

[2] = tested on: cisplatin-induced renal injury; test: Creatinine and BUN assays in cisplatin-induced renal injury; format: in vivo, C57BL/6 mice; conditions: cisplatin 15 mg per kg mice; test peptide 50 ug per kg i.p. daily for 3 days; vs cisplatin-treated mice
Description: as §1, §2
To monitor renal function, plasma levels of BUN and creatinine were determined using commercially available kits as described previously (See Pabla N et al., J Clin Invest 121, 2709-2722, 2011).

[3] = tested on: cisplatin-induced apoptosis in the kidney; test: TUNEL assay of renal apoptosis; format: in vivo, C57BL/6 mice; conditions: cisplatin 15 mg per kg mice; 50 ug per kg i.p. daily for 3 days
Description: as §1, §2, §3

[4] = tested on: p53-dependent apoptosis pathway; format: in vivo; conditions: renal tissues of cisplatin-treated mice; 50 ug per kg i.p. daily for 3 days
Description: as §1, §2
Samples were immunoblotted as previously described (See Santos-Carvalho A et al., Cell Death Dis 4, e636, 2013). Primary antibodies against the following proteins were used: P53(mouse, 1: 1000, Cell Signaling Technologies, 2524), Bax (rabbit, 1: 1000, Cell Signaling Technologies, 2772), Bcl2 (rabbit, 1: 1000, Cell Signaling Technologies, 5114S), and β-actin (1: 1000, Santa Cruz, SC-1615). Densitometric quantification was performed using Image J software (US National Institutes of Health).
Real time RT-PCR was performed as previously described (See Hu L et al., BMB Rep 48, 583-588, 2015). […] Quantitative real-time PCR was performed using Corbett research RG-6000 real-time PCR instrument. […]

Row | Molecule | Apoptotic tubular cells in the renal cortex (H&E) ([1]; cisplatin 15 mg per kg alone) | Plasma concentration of blood urea nitrogen (BUN) [2] | Plasma concentration of creatinine [2] | Cisplatin-induced increase in apoptotic tubular cells in the renal cortex (H&E) ([1]; cisplatin 15 mg per kg mice, 50 ug per kg i.p. daily for 3 days) | Apoptotic cells in the kidney (TUNEL assay) [3] | Expression levels of p53 and pro-apoptotic genes such as Bax, Noxa, and Puma [4] | Renal injury (H&E, tubular damage) ([1]; cisplatin 15 mg per kg mice, 50 ug per kg i.p. daily for 3 days, FIG. 3d)
1 | N.N.[Cl][Pt][Cl] [cisplatin, Cisplatin, reference compound] | increase |  |  |  |  |  | 
2 | Neuropeptide Y [Neuropeptide Y (NPY)] |  | decreased | decreased | diminished | decrease | decreased | 
3 | [Leu31Pro34]NPY [Y1 agonist] |  | reduced | reduced |  | decreased | suppressed | significantly reduced

From patent US10143727B2, “Method using an Y1 receptor activator for treating an anticancer agent-induced nephrotoxic injury” (KYUNGPOOK NATIONAL UNIVERSITY INDUSTRY-ACADEMIC COOPERATION …, priority 2016, dated 2018)
